Measured values: patent publication US20060193796A1, “Method for refining ultraviolet absorbent, ultraviolet absorbent and cosmetic material” (priority 2003, published 2006)

assay: Hue evaluation for ultraviolet absorbers, Hazen color (APHA), Lovibond Nessleriser 2150; format: physicochemical; details: not given
Description: Hue Evaluation for Ultraviolet Absorbers
Hazen color (APHA) was measured using Lovibond Nessleriser 2150.

SMILES | Evaluation for ultraviolet absorber: Hue
CCCCC(CC)COC(=O)C=Cc1ccc(OC)cc1 (stereo not drawn) [Example 1, 2-ethylhexyl p-methoxycinnamate] | 10 APHA
CCCCC(CC)COC(=O)C=Cc1ccc(OC)cc1 (stereo not drawn) [Example 2, 2-ethylhexyl p-methoxycinnamate] | 10 APHA
CCCCC(CC)COC(=O)C=Cc1ccc(OC)cc1 (stereo not drawn) [Example 3, 2-ethylhexyl p-methoxycinnamate] | 10 APHA
CCCCC(CC)COC(=O)C=Cc1ccc(OC)cc1 (stereo not drawn) [Example 4, 2-ethylhexyl p-methoxycinnamate] | 10 APHA
CCCCC(CC)COC(=O)C=Cc1ccc(OC)cc1 (stereo not drawn) [compound 1, 2-ethylhexyl p-methoxycinnamate] | 40 APHA
CCCCC(CC)COC(=O)C=Cc1ccc(OC)cc1 (stereo not drawn) [compound 2, 2-ethylhexyl p-methoxycinnamate] | 10 APHA
CCCCC(CC)COC(=O)C=Cc1ccc(OC)cc1 (stereo not drawn) [compound 3, 2-ethylhexyl p-methoxycinnamate] | 40 APHA
CCCCC(CC)COC(=O)C=Cc1ccc(OC)cc1 (stereo not drawn) [compound 4, 2-ethylhexyl p-methoxycinnamate] | 10 APHA
CCCCC(CC)COC(=O)C=Cc1ccc(OC)cc1 (stereo not drawn) [compound 5, 2-ethylhexyl p-methoxycinnamate] | 20 APHA
CCCCC(CC)COC(=O)C=Cc1ccc(OC)cc1 (stereo not drawn) [compound 6, 2-ethylhexyl p-methoxycinnamate] | 20 APHA
CCCCC(CC)COC(=O)C=Cc1ccc(OC)cc1 (stereo not drawn) [compound 7, 2-ethylhexyl p-methoxycinnamate] | 10 APHA
CCCCC(CC)COC(=O)C=Cc1ccc(OC)cc1 (stereo not drawn) [compound 8, 2-ethylhexyl p-methoxycinnamate] | 20 APHA
CCCCC(CC)COC(=O)C=Cc1ccc(OC)cc1 (stereo not drawn) [compound 9, 2-ethylhexyl p-methoxycinnamate] | 10 APHA

assay: Odor evaluation for ultraviolet absorbers after a time has elapsed (storage for 3 weeks); format: physicochemical; details: stored in the dark at 50° C. for 3 weeks; 10 ranks: 1, no odor; 10, very intense odor
Description: Odor Evaluation for Ultraviolet Absorbers After a Time Has Elapsed 100 ml of each ultraviolet absorber was filled into two different 200-ml sample bottles, and one bottle was stored in the dark (at 50° C.) and the other in the light (at 20° C., 1000 lux) for 3 weeks. The intensity of overall odor and that of irritating odor were evaluated using one of 10 ranks: 1, no odor; . . .; 10, very intense odor and scored.

SMILES | Odor evaluation for ultraviolet absorber after a time has elapsed: In the dark
CCCCC(CC)COC(=O)C=Cc1ccc(OC)cc1 (stereo not drawn) [Example 1, 2-ethylhexyl p-methoxycinnamate] | 2
CCCCC(CC)COC(=O)C=Cc1ccc(OC)cc1 (stereo not drawn) [Example 2, 2-ethylhexyl p-methoxycinnamate] | 2
CCCCC(CC)COC(=O)C=Cc1ccc(OC)cc1 (stereo not drawn) [Example 3, 2-ethylhexyl p-methoxycinnamate] | 2
CCCCC(CC)COC(=O)C=Cc1ccc(OC)cc1 (stereo not drawn) [Example 4, 2-ethylhexyl p-methoxycinnamate] | 2
CCCCC(CC)COC(=O)C=Cc1ccc(OC)cc1 (stereo not drawn) [compound 1, 2-ethylhexyl p-methoxycinnamate] | 5
CCCCC(CC)COC(=O)C=Cc1ccc(OC)cc1 (stereo not drawn) [compound 2, 2-ethylhexyl p-methoxycinnamate] | 5
CCCCC(CC)COC(=O)C=Cc1ccc(OC)cc1 (stereo not drawn) [compound 3, 2-ethylhexyl p-methoxycinnamate] | 4
CCCCC(CC)COC(=O)C=Cc1ccc(OC)cc1 (stereo not drawn) [compound 4, 2-ethylhexyl p-methoxycinnamate] | 4
CCCCC(CC)COC(=O)C=Cc1ccc(OC)cc1 (stereo not drawn) [compound 5, 2-ethylhexyl p-methoxycinnamate] | 3
CCCCC(CC)COC(=O)C=Cc1ccc(OC)cc1 (stereo not drawn) [compound 6, 2-ethylhexyl p-methoxycinnamate] | 3
CCCCC(CC)COC(=O)C=Cc1ccc(OC)cc1 (stereo not drawn) [compound 7, 2-ethylhexyl p-methoxycinnamate] | 3
CCCCC(CC)COC(=O)C=Cc1ccc(OC)cc1 (stereo not drawn) [compound 8, 2-ethylhexyl p-methoxycinnamate] | 3
CCCCC(CC)COC(=O)C=Cc1ccc(OC)cc1 (stereo not drawn) [compound 9, 2-ethylhexyl p-methoxycinnamate] | 2

same assay, conditions: stored in the light at 20° C., 1000 lux for 3 weeks; 10 ranks: 1, no odor; 10, very intense odor

SMILES | Odor evaluation for ultraviolet absorber after a time has elapsed: In the light
CCCCC(CC)COC(=O)C=Cc1ccc(OC)cc1 (stereo not drawn) [Example 1, 2-ethylhexyl p-methoxycinnamate] | 1
CCCCC(CC)COC(=O)C=Cc1ccc(OC)cc1 (stereo not drawn) [Example 2, 2-ethylhexyl p-methoxycinnamate] | 1
CCCCC(CC)COC(=O)C=Cc1ccc(OC)cc1 (stereo not drawn) [Example 3, 2-ethylhexyl p-methoxycinnamate] | 1
CCCCC(CC)COC(=O)C=Cc1ccc(OC)cc1 (stereo not drawn) [Example 4, 2-ethylhexyl p-methoxycinnamate] | 1
CCCCC(CC)COC(=O)C=Cc1ccc(OC)cc1 (stereo not drawn) [compound 1, 2-ethylhexyl p-methoxycinnamate] | 4
CCCCC(CC)COC(=O)C=Cc1ccc(OC)cc1 (stereo not drawn) [compound 2, 2-ethylhexyl p-methoxycinnamate] | 4
CCCCC(CC)COC(=O)C=Cc1ccc(OC)cc1 (stereo not drawn) [compound 3, 2-ethylhexyl p-methoxycinnamate] | 4
CCCCC(CC)COC(=O)C=Cc1ccc(OC)cc1 (stereo not drawn) [compound 4, 2-ethylhexyl p-methoxycinnamate] | 3
CCCCC(CC)COC(=O)C=Cc1ccc(OC)cc1 (stereo not drawn) [compound 5, 2-ethylhexyl p-methoxycinnamate] | 3
CCCCC(CC)COC(=O)C=Cc1ccc(OC)cc1 (stereo not drawn) [compound 6, 2-ethylhexyl p-methoxycinnamate] | 2
CCCCC(CC)COC(=O)C=Cc1ccc(OC)cc1 (stereo not drawn) [compound 7, 2-ethylhexyl p-methoxycinnamate] | 2
CCCCC(CC)COC(=O)C=Cc1ccc(OC)cc1 (stereo not drawn) [compound 8, 2-ethylhexyl p-methoxycinnamate] | 2
CCCCC(CC)COC(=O)C=Cc1ccc(OC)cc1 (stereo not drawn) [compound 9, 2-ethylhexyl p-methoxycinnamate] | 3
